Patent US9580444B2, “Polycyclic pyrazolinone derivative and herbicide comprising same as effective component thereof” (priority 2013, dated 2017)

Columns and labels:
Assay in all cases: Test Example-1: herbicidal effect by a treatment before weeds are generated under submerged conditions
Assay type in all cases: in vivo
Conditions in all cases: 500 g a.i/ha, pre-emergence treatment, about 15 days after treatment, score 0-5
[1] = tested on: Echinochloa oryzicola (barnyard grass)
Description: (§1) Using the formulation prepared according to the methods described above, the herbicidal effect of the bicyclic pyrazolinone derivative of the invention according to the methods shown in Test Examples below was examined. The herbicidal effect with respect to the test weeds or the phytotoxicity with respect to the test crops was examined according to the following criteria, and evaluated in six stage scores of 0 to 5.
(§2) A plastic cup of 30 cm^2 was filled with paddy soil, soil puddling was performed, seeds of Echinochloa oryzicola (barnyard grass), Cyperus difformis (smallflower umbrella plant), Monochoria vaginalis (monochoria), Scirpus juncoides (bulrush), and Eleocharis acicularis (needle spikerush), and Lindernia procumbens (common false pimpernel), Rotala indica (indian toothcup), Elatine triandra (waterwort) as other annual broad leaf weeds were seeded therein, and kept in a submerged state. A wettable powder or an emulsifiable concentrate of the compound of the present invention prepared according to Formulation Example was diluted on the weed seeding day, and a submersing treatment was performed so as to be a predetermined dosage. The herbicidal effect with respect to the test weeds about 15 days after the treatment was evaluated according to the evaluation criteria in six stages of 0 to 5 described above.

[2] = tested on: Eleocharis acicularis (needle spikerush)
Description: as §1, §2

[3] = tested on: Monochoria vaginalis (monochoria)
Description: as §1, §2

[4] = tested on: Scirpus juncoides (bulrush)
Description: as §1, §2

[5] = tested on: Cyperus difformis (smallflower umbrella plant)
Description: as §1, §2

[6] = tested on: other annual broad leaf weeds (Lindernia procumbens, Rotala indica, Elatine triandra)
Description: as §1, §2

Row | Structure (SMILES) | Herbicidal effect Echinochloa oryzicola [1] | Herbicidal effect Eleocharis acicularis [2] | Herbicidal effect Monochoria vaginalis [3] | Herbicidal effect Scirpus juncoides [4] | Herbicidal effect Cyperus difformis [5] | Herbicidal effect Broadleaf weed [6]
1 | COCOc1ccc(Oc2cc(-c3c(Cl)n4n(c3=O)CCCC4)c(F)cc2Cl)cc1 [Compound 3-15] | 5 (Herbicidal effect/phytotoxicity was 90% or greater) | 5 (Herbicidal effect/phytotoxicity was 90% or greater) | 5 (Herbicidal effect/phytotoxicity was 90% or greater) | 5 (Herbicidal effect/phytotoxicity was 90% or greater) | 5 (Herbicidal effect/phytotoxicity was 90% or greater) | 5 (Herbicidal effect/phytotoxicity was 90% or greater)
2 | C=C(COc1ccccc1Oc1cc(-c2c(Cl)n3n(c2=O)CCCC3)c(F)cc1Cl)c1cccc(Cl)c1 [Compound 3-26] | 5 (Herbicidal effect/phytotoxicity was 90% or greater) | 5 (Herbicidal effect/phytotoxicity was 90% or greater) | 5 (Herbicidal effect/phytotoxicity was 90% or greater) | 5 (Herbicidal effect/phytotoxicity was 90% or greater) | 5 (Herbicidal effect/phytotoxicity was 90% or greater) | 5 (Herbicidal effect/phytotoxicity was 90% or greater)
3 | COC(=O)COc1ccccc1Oc1cc(-c2c(Cl)n3n(c2=O)CCCC3)c(F)cc1Cl [Compound 3-16] | 5 (Herbicidal effect/phytotoxicity was 90% or greater) | 5 (Herbicidal effect/phytotoxicity was 90% or greater) | 5 (Herbicidal effect/phytotoxicity was 90% or greater) | 5 (Herbicidal effect/phytotoxicity was 90% or greater) | 5 (Herbicidal effect/phytotoxicity was 90% or greater) | 5 (Herbicidal effect/phytotoxicity was 90% or greater)
4 | C=C(C)COC(=O)C=C(COc1cc(-c2c(Cl)n3n(c2=O)CCCC3)c(F)cc1Cl)OCCC [Compound 2-33] | 5 (Herbicidal effect/phytotoxicity was 90% or greater) | 5 (Herbicidal effect/phytotoxicity was 90% or greater) | 5 (Herbicidal effect/phytotoxicity was 90% or greater) | 5 (Herbicidal effect/phytotoxicity was 90% or greater) | 5 (Herbicidal effect/phytotoxicity was 90% or greater) | 5 (Herbicidal effect/phytotoxicity was 90% or greater)
5 | CCCOC(=CC(=O)OCC(C)C)COc1cc(-c2c(Cl)n3n(c2=O)CCCC3)c(F)cc1Cl [Compound 2-34] | 5 (Herbicidal effect/phytotoxicity was 90% or greater) | 5 (Herbicidal effect/phytotoxicity was 90% or greater) | 5 (Herbicidal effect/phytotoxicity was 90% or greater) | 5 (Herbicidal effect/phytotoxicity was 90% or greater) | 5 (Herbicidal effect/phytotoxicity was 90% or greater) | 5 (Herbicidal effect/phytotoxicity was 90% or greater)
6 | CC(C)CCOc1cc(-c2c(Cl)n3n(c2=O)CCCC3)c(F)cc1F [Example 1-93] | 5 (Herbicidal effect/phytotoxicity was 90% or greater) | 5 (Herbicidal effect/phytotoxicity was 90% or greater) | 5 (Herbicidal effect/phytotoxicity was 90% or greater) | 5 (Herbicidal effect/phytotoxicity was 90% or greater) | 5 (Herbicidal effect/phytotoxicity was 90% or greater) | 5 (Herbicidal effect/phytotoxicity was 90% or greater)
7 | O=c1c(-c2ccc(Cl)cc2F)c(Cl)n2n1CCOCC2 [Example 1-129] | 5 (Herbicidal effect/phytotoxicity was 90% or greater) | 5 (Herbicidal effect/phytotoxicity was 90% or greater) | 5 (Herbicidal effect/phytotoxicity was 90% or greater) | 5 (Herbicidal effect/phytotoxicity was 90% or greater) | 5 (Herbicidal effect/phytotoxicity was 90% or greater) | 5 (Herbicidal effect/phytotoxicity was 90% or greater)
8 | COC(=O)C=C(COc1cc(-c2c(Cl)n3n(c2=O)CCCC3)c(Cl)cc1Cl)OC (mixture of isomers) [Compound 2-5] | 5 (Herbicidal effect/phytotoxicity was 90% or greater) | 5 (Herbicidal effect/phytotoxicity was 90% or greater) | 5 (Herbicidal effect/phytotoxicity was 90% or greater) | 5 (Herbicidal effect/phytotoxicity was 90% or greater) | 5 (Herbicidal effect/phytotoxicity was 90% or greater) | 5 (Herbicidal effect/phytotoxicity was 90% or greater)
9 | N#CCOc1ccc(Oc2cc(-c3c(Cl)n4n(c3=O)CCCC4)c(F)cc2Cl)cc1 [Compound 3-20] | 5 (Herbicidal effect/phytotoxicity was 90% or greater) | 5 (Herbicidal effect/phytotoxicity was 90% or greater) | 5 (Herbicidal effect/phytotoxicity was 90% or greater) | 5 (Herbicidal effect/phytotoxicity was 90% or greater) | 5 (Herbicidal effect/phytotoxicity was 90% or greater) | 5 (Herbicidal effect/phytotoxicity was 90% or greater)
10 | COc1ccc(Oc2cc(-c3c(Cl)n4n(c3=O)CCCC4)c(F)cc2Cl)cc1 [Compound 3-7] | 5 (Herbicidal effect/phytotoxicity was 90% or greater) | 5 (Herbicidal effect/phytotoxicity was 90% or greater) | 5 (Herbicidal effect/phytotoxicity was 90% or greater) | 5 (Herbicidal effect/phytotoxicity was 90% or greater) | 5 (Herbicidal effect/phytotoxicity was 90% or greater) | 5 (Herbicidal effect/phytotoxicity was 90% or greater)
11 | C#CCN(C)c1cc(-c2c(Cl)n3n(c2=O)CCCC3)c(F)cc1Cl [Example 5-68] | 5 (Herbicidal effect/phytotoxicity was 90% or greater) | 5 (Herbicidal effect/phytotoxicity was 90% or greater) | 5 (Herbicidal effect/phytotoxicity was 90% or greater) | 5 (Herbicidal effect/phytotoxicity was 90% or greater) | 5 (Herbicidal effect/phytotoxicity was 90% or greater) | 5 (Herbicidal effect/phytotoxicity was 90% or greater)
12 | O=c1c(-c2ccc(Cl)cc2Cl)c(Cl)n2n1CCCC2 [Example 1-280] | 5 (Herbicidal effect/phytotoxicity was 90% or greater) | 5 (Herbicidal effect/phytotoxicity was 90% or greater) | 5 (Herbicidal effect/phytotoxicity was 90% or greater) | 5 (Herbicidal effect/phytotoxicity was 90% or greater) | 5 (Herbicidal effect/phytotoxicity was 90% or greater) | 5 (Herbicidal effect/phytotoxicity was 90% or greater)
13 | O=c1c(-c2ccc(F)cc2F)c(Cl)n2n1CCCC2 [Example 1-75] | 5 (Herbicidal effect/phytotoxicity was 90% or greater) | 5 (Herbicidal effect/phytotoxicity was 90% or greater) | 5 (Herbicidal effect/phytotoxicity was 90% or greater) | 5 (Herbicidal effect/phytotoxicity was 90% or greater) | 5 (Herbicidal effect/phytotoxicity was 90% or greater) | 5 (Herbicidal effect/phytotoxicity was 90% or greater)
14 | C=CCOC(=O)C=C(COc1cc(-c2c(Cl)n3n(c2=O)CCCC3)c(F)cc1Cl)OCC (mixture of isomers) [Compound 2-11] | 5 (Herbicidal effect/phytotoxicity was 90% or greater) | 5 (Herbicidal effect/phytotoxicity was 90% or greater) | 5 (Herbicidal effect/phytotoxicity was 90% or greater) | 5 (Herbicidal effect/phytotoxicity was 90% or greater) | 5 (Herbicidal effect/phytotoxicity was 90% or greater) | 5 (Herbicidal effect/phytotoxicity was 90% or greater)
15 | C#CCOc1cc(Cl)ccc1Oc1cc(-c2c(Cl)n3n(c2=O)CCCC3)c(F)cc1Cl [Compound 3-39] | 5 (Herbicidal effect/phytotoxicity was 90% or greater) | 5 (Herbicidal effect/phytotoxicity was 90% or greater) | 5 (Herbicidal effect/phytotoxicity was 90% or greater) | 5 (Herbicidal effect/phytotoxicity was 90% or greater) | 5 (Herbicidal effect/phytotoxicity was 90% or greater) | 5 (Herbicidal effect/phytotoxicity was 90% or greater)
